Experimental data from patent EP1477168A1, “Use of cabergoline in the treatment of restless leg syndrome” (priority 1998, dated 1999).
Where a name gives a salt, the structure may show the parent alone.

Assays:
restless leg syndrome = conditions: in vivo; cited from earlier work
RLS [1] = conditions: cited from earlier work
[2] = test system: restless legs syndrome and periodic leg movements in sleep; conditions: cited from earlier work; for patients who responded: consecutive series of patients
RLS [3] = conditions: treatment of RLS; quote from www.rls.org, March 1999; cited from earlier work
restless legs syndrome [4] = assay: 12-week open label pilot trial of cabergoline in RLS patients: polysomnography; format: in vivo
Method: In a 12-week open label pilot trial, the effects of a single evening cabergoline-dose on symptoms of RLS were investigated in 9 patients and the results presented here. See also, Stiasny K., Oertel W.H., Schüler P. (1998). Cabergoline in RLS, ENS, Nice, Abstract.
Efficacy was assessed by polysomnography and subjective ratings. All patients previously had experienced partial benefit of a levodopa therapy (either standard or standard and slow release) and in part developed augmentation under levodopa therapy. At study entry all patients were comedicated with domperidone (20 mg TID) and five were still under levodopa therapy (400-800 mg). At the endpoint all patients were on cabergoline monotherapy (mean dose 2.1 mg, range 1 to 4 mg). Domperidone was stopped in all patients due to excellent tolerability. […] Total sleep time was prolonged, sleep latency shortened and sleep efficiency increased. All patients reported significant relief or became free of RLS symptoms.
(§1) Following a 2-week baseline period, all patients were treated with cabergoline in an open trial for 12 weeks. Apart from levodopa, patients had to stop taking any medication known to have positive or negative effect on RLS two weeks before baseline (i.e., other dopamine agonists, benzodiazepines, opioids or other psychotropic agents). Patients who were on levodopa therapy were allowed to either stop levodopa prior to study entry or to continue, taper or discontinue levodopa during the study. To prevent well known peripheral dopaminergic side-effects such as nausea, vomiting, vertigo and arterial hypotension domperidone (not available in the United States) was comedicated initially and also tapered if possible. […] Neurological case history, examination, electrocardiogramm, chest x-ray and polysomnography were performed to ensure that selection criteria were fulfilled. A two-night PSG (including one night of adaptation) was performed to evaluate the diagnosis and inclusion/exclusion criteria regardless if patients were on or off levodopa. After a 12-week treatment period patients were studied again for one night in the sleep laboratory. Subjective ratings were obtained at baseline, week 4, week 8 and at the endpoint after 12 weeks. In addition patients were monitored by phone calls to note any adverse events and to determine whether to increase the dosage of the study drug, to decrease levodopa and to decrease domperidone. The time schedule of phone calls was variable and the frequency mostly dependent on the presence of simultaneous levodopa therapy.
Inclusion criteria. Patients were included if they fulfilled the minimal diagnostic criteria according to the International RLS Study Group. After rating clinical symptoms at baseline, patients were referred to polysomnography without any RLS specific treatment other than levodopa. Patients were included if they had more than five PLM per hour of time-in-bed (PLM index) and a sleep efficiency index (total sleep time per hour time-in-bed) of less than 85%.
Exclusion criteria. Patients with signs of any other sleep disorder on PSG, especially sleep apnea syndrome (respiratory disturbances index > 5 per hour total sleep time), were excluded. Subjects receiving neuroleptic, antidepressant or other psychotropic medications or with any severe additional illness (with special consideration to pulmonary fibrosis) or drug abuse were also excluded. […]

restless legs syndrome [5] = assay: 12-week open label pilot trial: patients' subjective ratings and sleep diaries; format: in vivo
Method: as §1
Dosing. Study medication was available in tablets containing 0.5 mg, 1 mg or 2 mg Cabergoline (Cabaseril®, Pharmacia & Upjohn, Erlangen, Germany). Medication was taken 2 hours prior to bedtime. Initial therapy consisted of one 0.5 mg tablet. […] The increased dose could be decreased again if necessary. All patients were initially comedicated with domperidone 20 mg t.i.d. which could be tapered and stopped if possible. Subjects who were pretreated with levodopa were asked to decrease levodopa simultaneously if possible.
Subjective ratings. After each night of recording and at each visit at week 2 and 4, patients rated the severity of illness (normal to extremely ill), the therapeutic effects by rating their global improvements by use of the Patients Global Impressions (general condition very much worse to very much better), the severity of RLS symptoms during the time of falling asleep, during the night and during the day (scale: 0 = not present to 10 = very strong) and sleep satisfaction (very unsatisfied to very satisfied). In addition patients rated their quality of life, concerning well being and complaints during the previous week, using modified 50-mm Hamburger Visual Analogue Scale. Patients also filled in a sleep diary at each study visit rating the following symptoms: global assessment of sleep (very bad to very good night), sleep latency, sleep time, frequency of awakenings and urge to move the legs at time falling asleep, during the night and during the day (scale: 0 = not present to 10 = very strong).

restless legs syndrome [6] = assay: 12-week open label pilot trial: physician's rating (Clinical Global Impressions); format: in vivo; conditions: under cabergoline, 9 patients
Method: as §1, with “Subjective ratings were obtained at baseline, week 4, week 8 and at the endpoint after 12 weeks.” left out, “The time schedule of phone calls was variable and the frequency mostly dependent on the presence of simultaneous levodopa therapy.” left out

restless legs syndrome [7] = assay: 12-week open label pilot trial: safety and augmentation; format: in vivo, patients
Method: as §1
Safety. Safety of Cabergoline was assessed to the type and frequency of adverse event, clinically significant changes in laboratory data or ECG and premature discontinuation of study participation. Adverse events were classified as serious versus nonserious and characterized by intensity, relationship to drug treatment, frequency, course and therapeutic intervention.

[8] = Half-life and duration of action; format: in vivo; conditions: as stated by the applicant, no method given

CC(C)C[C@H]1C(=O)N2CCC[C@H]2[C@]2(O)O[C@](NC(=O)[C@@H]3C=C4c5cccc6[nH]c(Br)c(c56)C[C@H]4N(C)C3)(C(C)C)C(=O)N12 [Bromocriptine]
patients reporting better subjective improvement in restlessness and paresthesia compared to placebo (restless leg syndrome): 5 of 6
side effects reported (restless leg syndrome): transient nasal stuffiness and lightheadedness in one patient

N[C@@H](Cc1ccc(O)c(O)c1)C(=O)O [L-dopa]
RLS patients with augmentation who required a medication change (RLS [1]; Allen, Earley, Sleep 1996): 50%
augmentation in PLMS patients (RLS [1]; Allen, Earley, Sleep 1996): 31%
augmentation in RLS patients (RLS [1]; Allen, Earley, Sleep 1996): 82%
RLS patients with augmentation reporting 3 major symptoms of increased severity (RLS [1]; of the 22 RLS patients with augmentation): 100%
patients who responded [2]: 21 of 51

CCCN1C[C@H](CSC)C[C@@H]2c3cccc4[nH]cc(c34)C[C@H]21 [Pergolide]
patients who responded [2]: 19 of 26
patients who suffered from augmentation ([2]; patients treated with pergolide): 15%
patients who had augmentation ([2]; pergolide patients): 4 of 26

CCCN1C[C@H](CSC)C[C@@H]2c3cccc4[nH]cc(c34)C[C@H]21 [Permax®, pergolide mesylate]
people who develop augmentation (RLS [3]): 10%

C=CCN1C[C@H](C(=O)N(CCCN(C)C)C(=O)NCC)C[C@@H]2c3cccc4[nH]cc(c34)C[C@H]21 [cabergoline, 1((6-allylergolin-8β-yl) -carbony.)-1-(3-(dimethylamino)propyl)-3-ethylurea]
PLM arousal (restless legs syndrome [4]; Week 12, baseline 51.7 ± 42.3): 6.4 ± 11.2
PLM arousal index (restless legs syndrome [4]; number of PLM arousals per hour total sleep time, Week 12, baseline 10.4 ± 7.8): 1.0 ± 1.7
PLM awakening (restless legs syndrome [4]; number of PLM awakenings, Week 12, baseline 9.6 ± 4.9): 1.0 ± 2.0
PLM index (restless legs syndrome [4]; number of PLM per hour time in bed, Week 12, baseline 27.7 ± 17.1): 3.6 ± 5.3
No. Of PLM (restless legs syndrome [4]; total number of PLM during time in bed, Week 12, cabergoline monotherapy, baseline 195.8 ± 109.1): 26.4 ± 40.2
relief of RLS symptoms reported by patients (restless legs syndrome [5]; 12 weeks, 9 patients): All patients reported a significant relief or became free of RLS symptoms
severity of illness in PGI (number of patients) (restless legs syndrome [5]; cabergoline monotherapy, 9 patients, baseline extremely (2), very (4) or markedly (3) ill): normal (5) or borderline (2) in PGI, only two as moderately ill
quality of life (Hamburger Visual Analogue Scales) (restless legs syndrome [5]; compared with baseline): much better than under baseline conditions
sleep satisfaction (number of patients) (restless legs syndrome [5]; endpoint, 9 patients, baseline very (1), markedly (6) or moderately (2) unsatisfied): 2 were very, 4 markedly, 1 moderately satisfied and only 2 moderately unsatisfied
had to get up (restless legs syndrome [5]; sleep diaries, cabergoline monotherapy, baseline 2.1): 0.6 times per night
General condition in PGI (number of patients) (restless legs syndrome [5]; under cabergoline, 9 patients): very much better (6) or much better (3)
global quality of the previous night (sleep diaries) (restless legs syndrome [5]; zero (very bad) to 10 (very good) scale, endpoint, baseline 3.1): 6.9
Physician's rating of general condition (global improvement, number of patients) (restless legs syndrome [6]): very much better in 5, much better in 3 and minimally better in 1 patients
augmentation under cabergoline (restless legs syndrome [7]; 12-week treatment period): we did not observe augmentation in our patients
laboratory data and ECG (restless legs syndrome [7]; 12 weeks): No significant changes
adverse events probably related to the study drug, total (restless legs syndrome [7]; 12 weeks, 9 patients): 8
serious side effects and withdrawals (restless legs syndrome [7]; 12 weeks, 9 patients): no serious side effects and no patient withdrew from the study
patients reporting adverse events probably related to the study drug (restless legs syndrome [7]; of 9 patients): 5 patients
reversibility of augmentation evoked by levodopa (restless legs syndrome [7]; patients who had developed augmentation under levodopa): reversible under cabergoline in all of our patients
half life [8]: > 65 h
half-life ([8]; human, in vivo): 65 h
